Where two headings read alike, the source gives them in different places.
Experiments:
[1] = molecular target: T1, dopamine D3 receptor (Homo sapiens, UniProt P35462); test: Radioligand binding assay, dopamine D3 receptor ([3H]-methylspiperone); conditions: Human Dopamine D3 Receptor membrane, [3H]-methylspiperone 0.5 nM
T1 construct: purchased PerkinElmer ES-173-M400UA
Protocol: Determination of the binding ability of the compounds of the present invention to dopamine D3 receptor
The objective of this test example is to determine the affinity of the compounds for dopamine D3 receptor.
Experimental buffer: 50 mM Tris-HCl pH 7.4, 10 mm MgCl2; washing liquor: 50 mM Tris-HCl pH 7.4, stored at 4°C; 0.5% PEI solution: 0.5 g PEI dissolved in 100 mL ddH2O, 4°C storage of spare.
(§1) 5 µL of the test compounds (0.005 nM to 100 nM, 10 concentrations in total) and 100 µL of buffer were added to a 96-well assay plate. 1 µL of cell membrane and 300 µL of buffer were added to each well, and the plate was shaken at 600 rpm for 5 minutes. 100 µL of a mixed solution of buffer and [^3H]-methylspiperone (final concentration of 0.5 nM) was added to the reaction system per well, and the plate was shaken at 600 rpm for 5 minutes and incubated at 27°C for 30 min. The UNIFII,TER-96 GF/B filter plate pre-incubated with 0.5% PEI for 1 h was washed twice with the buffer (1 mL/well). The cell membrane suspension was added to the […]-96 GF/B filter plate, washed 4 times, and incubated at 55°C for 10 min. 40 µL of ULTIMA GOLD was added to each well, and liquid scintillation counting was carried out.
(§2) The CPM (Counts per minute) values were determined by TopCount. […] The 10 concentrations of the compound were from 100 nM to 0.005 nM after 3-fold dilution of the reaction system. The percent inhibition rate and ten-point concentration data were fitted to the parametric nonlinear logistic equation by using GraphPad prism to calculate the IC50 values of the compound.

[2] = molecular target: T2, 5-HT2A receptor (Homo sapiens, UniProt P28223); test: Radioligand binding assay, 5-HT2A receptor ([3H]-Ketanserin); parameters: purchased PerkinElmer; conditions: Human 5-HT2A Receptor membrane, [3H]-Ketanserin 2 nM; read-out: 5HT-2A Binding IC50
T2 sequence (P28223 whole entry): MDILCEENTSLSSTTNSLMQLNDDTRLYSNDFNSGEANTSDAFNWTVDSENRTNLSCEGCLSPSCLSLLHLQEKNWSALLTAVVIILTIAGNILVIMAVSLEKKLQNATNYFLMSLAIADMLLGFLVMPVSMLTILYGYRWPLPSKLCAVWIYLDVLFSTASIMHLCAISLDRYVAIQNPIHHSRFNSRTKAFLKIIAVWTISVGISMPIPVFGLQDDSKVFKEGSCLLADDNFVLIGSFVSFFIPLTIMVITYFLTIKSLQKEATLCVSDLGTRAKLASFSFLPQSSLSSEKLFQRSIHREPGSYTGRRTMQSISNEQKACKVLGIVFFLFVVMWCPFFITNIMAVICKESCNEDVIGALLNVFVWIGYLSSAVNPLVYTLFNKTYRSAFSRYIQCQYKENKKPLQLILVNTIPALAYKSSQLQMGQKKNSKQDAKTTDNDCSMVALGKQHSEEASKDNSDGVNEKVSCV
Protocol: Determination of the binding ability of the compounds of the
present invention to 5-HT2A receptor
The objective of this test example is to determine the affinity of the compounds for 5-HT2A receptor.
Experimental buffer: 50 mM Tris-HCl pH 7.4, 4 mM CaCl2; washing liquor: 50 mM Tris-HCl pH 7.4, stored at 4°C; 0.5% PEI solution: 0.5 g PEI dissolved in 100 mL ddH2O, 4°C storage of spare.
as §1, with “plate. 1.5” for “plate. 1”, “and [^3H]-Ketanserin” for “and [^3H]-methylspiperone”, “of 2” for “of 0.5”, “The […]-96” for “The UNIFII,TER-96”
as §2

[3] = molecular target: T2, 5-HT2A receptor; test: Calcium ion mobility in cells stably expressing 5-HT2A receptors (Flp-In-CHO-5HT2A, FLIPR); type: cell-based; parameters: expressed in transfected cells; conditions: Flp-In-CHO-5HT2A stable pool, 5HT stimulation
Protocol: Determination of the effect of the compounds of the present invention on calcium ion mobility in cells stably expressing 5-HT2A receptors
To determine the inhibitory effect of the compounds on 5-HT2A receptor.
• 1) Preparation of the buffer: 1 x HBSS, 20 mM HEPES, 2.5 mM probenecid (probenecid was 400 mM stock in 1 M NaOH), 0.1% BSA. Probenecid and BSA were added fresh on the day of the experiment. Experimental buffers include dye buffer and compound dilution buffer. • 2) Cell culture medium: Ham's F-12K + 10% fetal bovine serum + 600 µg/ml hygromycin B + 1* penicillin-streptomycin. Seeding medium: Ham's F-12K + 10% dialysis serum; Assay buffer: 1 x HBSS + 20 mM HEPES; Cell line: Flp-In-CHO-5HT2A stable pool. • 3) The cells were cultured in the complete medium at 37°C, 5% CO2 to 70%-90% confluency. The cells were digested with TrypLE, seeded to the 384-well assay plate at a density of 1 × 10^4 cells/well, and incubated for 16 to 24 hours (at least overnight). • 4) 20X Component A was thawed to room temperature, diluted to 2X working concentration (containing 5mM Probenecid) with the assay buffer, and placed at room temperature for later use. • 5) The cell culture plate was taken out and left to stand at room temperature for 10 min. […] 10 µl of diluted 5HT was add to each experimental well using FLIPR Tetra, and the values were read.
The calcium signal values were determined by FLIPR. The calculated output for each sampling time point in the experiment was the ratio of the 340/510 nm wavelength signals to 380/510 nm wavelength signals. The maximum minus minimum calculation was derived from the ratio signal curve. The percent inhibition rate and ten-point concentration data were fitted to the parametric nonlinear logistic equation by using GraphPad prism to calculate the IC50 values of the compound.

[4] = molecular target: T3, D3 receptor (Homo sapiens, UniProt P35462); test: cAMP content in cells stably expressing D3 receptors (CHO-D3, forskolin, HTRF); type: cell-based
T3 construct: expressed in transfected cells
T3 sequence (P35462 whole entry): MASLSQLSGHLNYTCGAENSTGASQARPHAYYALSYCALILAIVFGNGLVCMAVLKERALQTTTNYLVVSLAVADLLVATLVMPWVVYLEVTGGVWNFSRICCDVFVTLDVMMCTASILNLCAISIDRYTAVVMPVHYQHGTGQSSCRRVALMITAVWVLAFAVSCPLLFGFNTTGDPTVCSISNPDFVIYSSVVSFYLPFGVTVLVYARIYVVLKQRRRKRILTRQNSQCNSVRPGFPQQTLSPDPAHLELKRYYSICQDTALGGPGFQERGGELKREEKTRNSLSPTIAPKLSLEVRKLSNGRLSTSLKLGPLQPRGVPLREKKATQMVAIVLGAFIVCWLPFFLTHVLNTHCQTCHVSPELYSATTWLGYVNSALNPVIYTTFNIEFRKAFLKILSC
Protocol: Determination of the effect of the compounds of the present invention on cAMP content in cells stably expressing D3 receptors
To determine the activation effect of the compounds on D3 receptor.
• 1. Preparation of the buffer: 1* HBSS + 20mM HEPES + 0.1% BSA + 500 µM IBMX. Complete medium: Ham's F12K + 10% fetal bovine serum +1* penicillin-streptomycin + 400 µg/mL G418. • 2. CHO-D3 cells were cultured in the complete medium at 37°C, 5% CO2. After TrypLE digestion, the cells were resuspended in the experimental buffer, and seeded into a 384-well cell culture plate at a seeding density of 8000 cells per well. • 3. The experimental buffer (1*HBSS, 0.1% BSA, 20 mM HEPES and 500 µM IBMX) was prepared. The compound was diluted with the buffer. 2.5 µL of the compound solution was added to each well, and the plate was incubated at 37°C for 10 minutes. The forskolin was diluted to 8 µM (8*) with the experimental buffer. 2.5 µL of the diluted 8* forskolin was added, and the plate was incubated at 37°C for 30 minutes. cAMP-d2 and Anti-cAMP-Eu^3+ were thawed, and diluted by 20-fold with the lysis buffer. 10 µL of cAMP-d2 was added to the experimental well, followed by the addition of 10 µL of Anti-cAMP-Eu^3+. The reaction plate was centrifuged at 200 g for 30 s at room temperature, and left to stand at 25°C for 1 h. Data was collected using Envision.

[5] = Pharmacokinetic assay in Balb/c mice (plasma and brain tissue); type: in vivo; conditions: male, mouse, po, p.o. 5 mg/kg; for AUC(0-t): read-out: Area under curve AUC0-t; for Tmax: read-out: Peak time tmax; for Cmax: read-out: Plasma concentration Cmax; for AUC(0-inf): read-out: Area under curve AUC0-∞; for MRT: read-out: Average residence time MRT; for half-life: read-out: Half life t1/2 (converted)
Protocol: Balb/c mice were used as test animals. The pharmacokinetic behavior in mouse body (plasma and brain tissue) of the compounds of Examples of the present invention was studied at an oral administration dose of 5 mg/kg.
Compounds of the Examples of the present invention, prepared by the applicant.
Male Balb/c mice (12 mice per group), purchased from Shanghai Jiesijie Laboratory Animal Co., LTD, with Certificate No.: SCXK (Shanghai) 2013-0006 N0.311620400001794.
The test compound was dissolved in 0.5% CMC-Na (1% Tween80) by sonication to formulate a clear solution or homogeneous suspension.
After an overnight fast, male Balb/c mice (12 mice per group) were administered p.o. with the test compound at an administration dose of 5 mg/kg and an administration volume of 10 mL/kg.
0.2 mL of blood was taken from the heart of the mouse before administration and at 1, 2, 4, 8 and 24 hours after administration, and the mice were sacrificed with CO2. The samples were stored in EDTA-K2 tubes, and centrifuged for 6 minutes at 4°C, 6000 rpm to separate the plasma. The plasma samples were stored at -80°C. Whole brain tissue was taken out, weighed, placed in a 2 mL centrifuge tube, and stored at -80°C.
• 1) 160 µL of acetonitrile was added to 40 µL of the plasma sample for precipitation, and then the mixture was centrifuged for 5 to 20 minutes at 3500 × g. • 2) 90 µL of acetonitrile containing internal standard (100 ng/mL) was added to 30 µL of the plasma and brain homogenate sample for precipitation, and then the mixture was centrifuged for 8 minutes at 13000 rpm. • 3) 70 µL of water was added to 70 µL of the treated supernatant and mixed by vortex for 10 minutes. 20 µL of the supernatant was taken to analyze the concentration of the test compound by LC/MS/MS. LC/MS/MS analytical instrument: AB Sciex API 4000 Qtrap.
• Liquid chromatography condition: Shimadzu LC-20AD pump • Chromatographic column: Agilent ZORBAX XDB-C18 (50×2.1 mm, 3.5 µm); Mobile phase: Eluent A was 0.1% formic acid in water, and Eluent B was acetonitrile • Flow rate: 0.4 mL/min • Elution time: 0-4.0 minutes, the eluent is as follows:
The main parameters of pharmacokinetics were calculated by WinNonlin 6.1. Table 17: Experimental results of pharmacokinetic assay in mice

T1 sequence (P35462 whole entry): as above

Row | Compound | IC50 [1] | IC50 [2] | IC50 [3] | EC50 [4] | AUC(0-t) ([5]; Brain) | Tmax ([5]; Brain) | Cmax ([5]; Brain) | AUC(0-t) ([5]; Plasma) | AUC(0-inf) ([5]; Plasma) | MRT ([5]; Plasma) | half-life ([5]; Plasma) | Tmax ([5]; Plasma) | Cmax ([5]; Plasma) | AUC(0-inf) ([5]; Brain)
1 | O=C(N[C@H]1C[C@H](CCN2CCN(c3cccc(Cl)c3Cl)CC2)C1)c1ccon1 [Example 17A, N-(Trans-3-(2-(4-(2,3-dichlorophenyl)piperazin-1-yl)ethyl)cyclobutyl)isoxazole-3-ca rboxamide] | 0.3 nM | 1.92 nM | 20.8 nM | 1.1 nM | – | – | – | – | – | – | – | – | – | –
2 | CC(C)(O)C(=O)NC1CC(CCN2CCN(c3cccc(Cl)c3Cl)CC2)C1 (centres unmarked) [Example 4A] | 0.95 nM | 41.5 nM | 39 nM | 0.4 nM | – | – | – | – | – | – | – | – | – | –
3 | O=C(N[C@H]1C[C@H](CCN2CCN(c3cccc(Cl)c3Cl)CC2)C1)c1ccno1 [Example 15A, N-(Trans-3-(2-(4-(2,3-dichlorophenyl)piperazin-1-yl)ethyl)cyclobutyl)isoxazole-5-ca rboxamide] | 0.31 nM | 0.98 nM | 3.14 nM | 0.7 nM | – | – | – | – | – | – | – | – | – | –
4 | CCN(C)C(=O)NC1CC(CCN2CCN(c3cccc4sccc34)CC2)C1 (centres unmarked) [Example 24, 3-(3-(2-(4-(Benzo[b]thiophen-4-yl)piperazin-1-yl)ethyl)cyclobutyl)-1-ethyl-1-methy lurea] | 1.13 nM | 6.39 nM | – | 0.9 nM | 2190 ng·h/mL | 1 h | 339 ng/mL | 1480 ng·h/mL | 2000 ng·h/mL | 5.7 h | 3.4 h | 0.5 h | 369 ng/mL | 2310 ng·h/mL

Now from value to compound:

Row | IC50 [1] | IC50 [2] | IC50 [3] | EC50 [4] | AUC(0-t) ([5]; Brain) | Tmax ([5]; Brain) | Cmax ([5]; Brain) | AUC(0-t) ([5]; Plasma) | AUC(0-inf) ([5]; Plasma) | MRT ([5]; Plasma) | half-life ([5]; Plasma) | Tmax ([5]; Plasma) | Cmax ([5]; Plasma) | AUC(0-inf) ([5]; Brain) | Compound
5 | 0.34 nM | 1.35 nM | 4.37 nM | 0.9 nM | – | – | – | – | – | – | – | – | – | – | Cc1cc(C(=O)NC2CC(CCN3CCN(c4cccc(Cl)c4Cl)CC3)C2)on1 (centres unmarked) [Example 14A]
6 | 4.37 nM | 48.4 nM | 39 nM | – | 900 ng·h/mL | 1 h | 361 ng/mL | 2250 ng·h/mL | 2320 ng·h/mL | 2.3 h | 1.6 h | 0.5 h | 961 ng/mL | – | O=C(N[C@H]1C[C@@H](CCN2CCN(c3cccc(Cl)c3Cl)CC2)C1)C1(O)CC1 [Example 6B, N-(Cis-3-(2-(4-(2,3-dichlorophenyl)piperazin-1-yl)ethyl)cyclobutyl)-1-hydroxycyclo propane-1-carboxamide]
7 | 2.78 nM | 9.63 nM | – | 0.4 nM | – | – | – | – | – | – | – | – | – | – | C[C@@H]1CN(CCC2CC(NC(=O)C(C)(C)O)C2)CCN1c1cccc(Cl)c1Cl (stereo partly drawn) [Example 22, (R)-N-(3-(2-(4-(2,3-Dichlorophenyl)-3-methylpiperazin-1-yl)ethyl)cyclobutyl)-2-hy droxy-2-methylpropanamide]
8 | 0.79 nM | 6.35 nM | – | – | 1540 ng·h/mL | 1 h | 162 ng/mL | 240 ng·h/mL | 297 ng·h/mL | 5.1 h | 3.25 h | 1 h | 49.7 ng/mL | 1650 ng·h/mL | O=C(NC1CC(CCN2CCCN(c3cccc(Cl)c3Cl)CC2)C1)c1ccco1 (centres unmarked) [Example 25, N-(3-(2-(4-(2,3-Dichlorophenyl)-1,4-diazepan-1-yl)ethyl)cyclobutyl)furan-2-carbox amide]
